Experimental data published in ChEMBL document CHEMBL1955740, “Structure-based virtual screening approach to the discovery of p38 MAP kinase inhibitors” (Bioorg Med Chem Lett, 2012).

Legend:
[1] = target: T1, Mitogen-activated protein kinase 14 (Homo sapiens, UniProt Q16539); experiment: Inhibition of MAPK p38alpha
[2] = target: T1, Mitogen-activated protein kinase 14; experiment: Inhibition of MAPK p38alpha assessed as activity remaining at 50 uM relative to control

T1 sequence (Q16539 whole entry): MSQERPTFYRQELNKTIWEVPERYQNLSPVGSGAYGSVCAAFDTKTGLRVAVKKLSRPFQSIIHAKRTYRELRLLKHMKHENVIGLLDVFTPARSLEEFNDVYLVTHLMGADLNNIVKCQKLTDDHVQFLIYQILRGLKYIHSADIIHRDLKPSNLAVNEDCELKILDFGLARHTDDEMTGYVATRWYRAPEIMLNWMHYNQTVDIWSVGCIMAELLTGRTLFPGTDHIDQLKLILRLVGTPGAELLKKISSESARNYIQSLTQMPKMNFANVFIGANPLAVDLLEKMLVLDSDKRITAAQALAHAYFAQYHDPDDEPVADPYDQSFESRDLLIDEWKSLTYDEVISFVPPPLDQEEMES

## NC(=O)c1ccc(Nc2nnc(-c3ccc(O)cc3)c3ccccc23)cc1
[1]
  IC50: > 30 µM
[2]
  Activity: 41%

## Nc1nc(Nc2ccccc2)sc1C(=O)c1ccccc1
[1]
  IC50: 0.72 µM
[2]
  Activity: 8.1%

## Cc1cccc(-c2nc(Nc3ccc(C(=O)O)cc3)c3ccccc3n2)c1
[1]
  IC50: 20.4 µM
[2]
  Activity: 34%

## Cn1cc(/C=C2/C(=O)NC(=O)N(CCc3ccccc3)C2=O)c2ccccc21
[1]
  IC50: 17.1 µM
[2]
  Activity: 32%

## O=C1c2ccccc2C(=O)N1CCc1nc2c3c(-c4ccco4)c(-c4ccco4)oc3ncn2n1
[1]
  IC50: > 30 µM
[2]
  Activity: 39%

## CCn1cc(/C=C2/Oc3c(ccc(O)c3CN3CCOCC3)C2=O)c2ccccc21
[1]
  IC50: > 30 µM
[2]
  Activity: 37%
